Assay results from patent US20240238310A1, “MODULATION OF SEX STEROID HORMONE PRODUCTION AND ACTIVITY FOR TREATING AND PREVENTING HERNIAS” (Northwestern University, priority 2020, published 2024).
“Also recorded” adds a separate entry of the source.

Columns and labels:
[1] = system: Arom^hum mice; experiment: Reversal of established scrotal hernias and LAMT fibrosis/atrophy in Arom^hum mice; assay type: in vivo, mouse
Experimental: FIG. 16. […] Arom^hum mice with small to moderate size of hernias were treated with placebo or letrozole for 12 weeks. (A) Schematic diagram depicts the schedule of drug administration. (B) The area of scrotal hernia in Arom^hum mice. (C) Representative photomicrographs of Masson's trichrome-stained LAMT sections of WT and Arom^hum mice. Quantification of the percentage of connective tissue or fibrotic area (D) or myofiber area (E) in WT and Arom^hummice. 10 representative high-power fields were analyzed in each tissue. One-way ANOVA with Tukey's multiple comparison test, **p<0.01, ***p<0.001. Scale bars, […]. n=5 mice per group.
FIG. 17. […] Arom^hum mice with small to moderate size of hernias were treated with placebo or letrozole for 3 weeks. (A) Schematic diagram depicts the schedule of drug administration. (B) The area of scrotal hernia in Arom^hum mice.
FIG. 18. E2/ER antagonist fulvestrant reverses the large size of scrotal hernias and rescues LAMT fibrosis and myocyte atrophy in Arom^hum mice. Arom^hum mice with large size of hernias were treated with placebo or fulvestrant for 12 weeks. (A) Schematic diagram depicts the schedule of drug administration. (B) The area of scrotal hernia in Arom^hum mice. (C) Representative photomicrographs of Masson's trichrome-stained LAMT sections of WT and Arom^hum mice. Quantification of the percentage of connective tissue or fibrotic area (D) in WT and Arom^hum mice. 10 representative high-power fields were analyzed in each tissue. (E) Hydroxyproline content in LAMT of WT and Arom^hum mice treated with fulvestrant. One-way ANOVA with Tukey's multiple comparison test, ***p<0.001, ****p<0.0001. n=5 mice per group.
(§1) FIG. 19. Aromatase inhibitor letrozole reverses the large size of scrotal hernias in Arom^hum mice. Arom^hum mice with large size of hernias were treated with placebo or letrozole for 12 weeks. (A) Schematic diagram depicts the schedule of drug administration. (B) The area of scrotal hernia in Arom^hum mice.
as §1, with “20. E2/ER antagonist raloxifene” for “19. Aromatase inhibitor letrozole”, “raloxifene” for “letrozole”, “3” for “12”
We treated Arom^hum mice with letrozole for 12 weeks. […] Raloxifene is a selective estrogen receptor modulator (SERM) and is currently used to prevent and treat osteoporosis in postmenopausal women.
We treated Arom^hum mice with fulvestrant for 12 weeks when the hernia area was over 200 mm^2. Large hernias were completely disappeared after 3- to 4-week of fulvestrant administration. […] We measured the total amount of collagen (largely type I and III), a major component of ECM, through measuring the content of hydroxyproline(1).

[2] = system: LAMT primary fibroblasts from Arom^hum mice; experiment: mRNA levels of estrogen-responsive and fibrotic genes in LAMT primary fibroblasts after E2 antagonist treatment; assay type: cell-based, mouse; settings: 100 nM ICI 182,780, pretreated 2 hours before addition of E2 (10 nM)
Experimental: FIG. 10. mRNA levels of estrogen-responsive genes [Pgr (A, E) and Greb1 (B, F)] and fibrotic genes [Spon2 (C, G), Kiss1 (D), and Eln (H)] in LAMT primary fibroblasts from Arom^hum mice after treatment with 100 nM ICI 182,780 (ICI) or […] MPP in the presence or absence of E2 (10 nM). Cells were pretreated with ICI 182,780 or MPP for 2 hours before the addition of E2. Veh, vehicle. *P<0.05, **P<0.01. GAPDH mRNA levels served as controls.
Experiment 1a2: Does the general E2 antagonist fulvestrant, which downregulates and blocks ER, or ERα-selective E2 antagonist MPP prevent, arrest or reverse LAMT muscle fibrosis, atrophy and inguinal hernias in male Arom^hum mice? […] Here, we will define whether the effects of E2 on hernia formation in LAMT is mediated via ERα in vivo. We will treat Arom^hum or WT mice with vehicle, fulvestrant (ICI 182,780), or MPP. […] Circulating and muscle tissue E2 levels will be measured using LC-MS^2. To validate the effects of each treatment, protein expression of ERα and E2/ERα target genes (Ccnd1, Pgr, and Greb1), and cell proliferation markers (Ki67 and PCNA) will be determined by IHC and immunoblotting. Fibrotic-related genes (Kiss1, Ren1, Emb, Timp1, Spon2, and Eln), the ECM marker Col1a1, and the myocyte marker Myh will be assessed using qPCR and IHC in LAMT after fulvestrant, MPP, and/or letrozole treatment. […]

**Q.** What does the source list for C[C@]12CC[C@@H]3c4ccc(O)cc4C[C@@H](CCCCCCCCC[S+]([O-])CCCC(F)(F)C(F)(F)F)[C@H]3[C@@H]1CC[C@@H]2O (stereo partly drawn) [fulvestrant]?
**A.** myofiber atrophy / myofiber cross-section area ([1]; Arom^hum mice with large hernias, fulvestrant 12 weeks, FIG. 18C): completely reversed myofiber atrophy; also recorded: increase in myofiber cross-section area; total collagen content in LAMT (hydroxyproline assay) ([1]; Arom^hum mice with large hernias, fulvestrant 12 weeks, FIG. 18E): decreased to normal levels similar to WT mice; established fibrosis in the LAMT ([1]; Arom^hum mice with large hernias, fulvestrant 12 weeks, FIGS. 18C and D): completely reversed with fulvestrant treatment; also recorded: decrease in muscle fibrosis; reversal of large and severe hernias (>200 mm^2) ([1]; Arom^hum mice, fulvestrant alone for 12 weeks, started when hernia area was over 200 mm^2, FIG. 18): can reverse large and severe hernias; time of administration after which large hernias completely disappeared ([1]; Arom^hum mice, hernia area over 200 mm^2): 3- to 4 week; E2-induced expression of estrogen-responsive genes (Pgr and Greb1) and fibrotic genes (Spon2, Kiss1, Eln) [2]: significantly decreased E2-induced expression of estrogen-responsive genes (Pgr and Greb1) and fibrotic genes (Spon2, Kiss1 and, Eln)
